Assay results published in ChEMBL document CHEMBL3217557, “Triazole-substituted N-hydroxyindol-2-carboxylates as inhibitors of isoform 5 of human lactate dehydrogenase (hLDH5)” (Medchemcomm, 2011).

Columns and labels:
[1] = biological target: T1, L-lactate dehydrogenase A chain (Homo sapiens, UniProt P00338); assay: Inhibition of human LDHA4 using sodium pyruvate as substrate assessed as NADH oxidation at 125 uM measured every 30 secs for 5 mins by spectrophotometric analysis relative to control
[2] = biological target: T1, L-lactate dehydrogenase A chain; assay: Competitive inhibition of human LDHA4 using 0.025 to 1 mM sodium pyruvate as substrate measured every 30 secs for 5 mins by Lineweaver-Burk plot analysis in presence of NADH
[3] = biological target: T1, L-lactate dehydrogenase A chain; assay: Competitive inhibition of human LDHA4 using sodium pyruvate as substrate measured every 30 secs for 5 mins by Lineweaver-Burk plot analysis in presence of 12.5 to 150 uM NADH
Homo sapiens = species: Homo sapiens; assay: Inhibition of human LDH1 using sodium pyruvate as substrate assessed as NADH oxidation at 125 uM measured every 30 secs for 5 mins by spectrophotometric analysis relative to control
[4] = Competitive inhibition of human LDH1 using sodium pyruvate as substrate measured every 30 secs for 5 mins by Lineweaver-Burk plot analysis in presence of 12.5 to 150 uM NADH

SMILES	inhibition [1]	Ki [2]	Ki [3]	inhibition (Homo sapiens)	Ki [4]
O=C(O)c1cccc(-c2cn(-c3ccc4c(c3)cc(C(=O)O)n4O)nn2)c1	< 15%				
CCCCc1cn(-c2cccc3c2cc(C(=O)O)n3O)nn1	< 15%				
O=C(O)c1cc2cc(-n3cc(-c4ccccc4)nn3)ccc2n1O	< 15%				
O=C(O)c1cccc(-c2cn(-c3ccc4cc(C(=O)O)n(O)c4c3)nn2)c1	65%	45 µM	50 µM	< 3%	
O=C(O)c1cc2c(-n3cc(CCO)nn3)cccc2n1O	< 15%				
O=C(O)c1cc2ccc(-n3cc(CCCc4cn(-c5ccc6cc(C(=O)O)n(O)c6c5)nn4)nn3)cc2n1O	83%	37 µM	20 µM	32%	
O=C(O)c1cc2c(-n3cc(-c4ccccc4)nn3)cccc2n1O	73%	44 µM	28 µM	< 3%	
O=C(O)c1cccc(-c2cn(-c3cccc4c3cc(C(=O)O)n4O)nn2)c1	60%	86 µM	57 µM	60%	89 µM
